ChEMBL document CHEMBL3758173, “Identification of β-Amino alcohol grafted 1,4,5 trisubstituted 1,2,3-triazoles as potent antimalarial agents” (Eur J Med Chem, 2016)
Calls of active or inactive are those of the source. The calls are words filed in the database; no cut-off is given here.

Experiments:
[1] = Selectivity index, ratio of CC50 for monkey kidney VERO cells to IC50 for chloroquine resistant Plasmodium falciparum K1 infected in human erythrocytes; type: functional
[2] = tested on: Plasmodium falciparum; assay: Antiplasmodial activity against chloroquine resistant Plasmodium falciparum K1 infected in human erythrocytes incubated for 72 hrs by SYBR Green1-based fluorescence analysis; type: functional, organism-based; details: K1, 72 h
[3] = tested on: Plasmodium falciparum; assay: Antiplasmodial activity against chloroquine sensitive Plasmodium falciparum 3D7 infected in human erythrocytes incubated for 72 hrs by SYBR Green1-based fluorescence analysis; type: functional, organism-based; details: 3D7, 72 h
[4] = Cytotoxicity against monkey kidney Vero cells by resazurin assay; type: cell-based; details: chlorocebus sabaeus
[5] = Resistance index, ratio of IC50 for chloroquine resistant Plasmodium falciparum K1 infected in human erythrocytes to IC50 for chloroquine sensitive Plasmodium falciparum 3D7 infected in human erythrocytes; type: functional
[6] = Selectivity index, ratio of CC50 for monkey kidney VERO cells to IC50 for chloroquine sensitive Plasmodium falciparum 3D7 infected in human erythrocytes; type: functional
[7] = tested on: Mus musculus; assay: Toxicity in multidrug-resistant Plasmodium yoelii nigeriensis infected Swiss mouse assessed as mouse survival at 100 mg/kg/day, po for 4 days; type: organism-based; details: in vivo, 96 h
[8] = tested on: Plasmodium yoelii nigeriensis; assay: Antiplasmodial activity against multidrug-resistant Plasmodium yoelii nigeriensis infected in Swiss mouse assessed as suppression of parasitaemia at 100 mg/kg, po for 4 days by Geimsa-staining based analysis; type: functional; details: 96 h
[9] = tested on: MCF7; assay: Upregulation of p53 level in human MCF7 cells at antiplasmodial IC50 after 48 hrs by immnublotting method; type: functional, cell-based; details: TDE = time-dependent effect
[10] = tested on: MCF7; assay: Induction of p53 protein expression in human MCF7 cells at antiplasmodial IC50 after 36 hrs by luciferase reporter assay relative to control; type: functional
[11] = Tmax in Sprague-Dawley rat at 100 mg/kg, po after 0 to 48 hrs by LC-MS/MS analysis; type: ADME, organism-based; details: in vivo
[12] = Mean residence time(last) in Sprague-Dawley rat at 100 mg/kg, po after 0 to 48 hrs by LC-MS/MS analysis; type: ADME, organism-based; details: in vivo
[13] = tested on: Rattus norvegicus; assay: AUC(last) in Sprague-Dawley rat at 100 mg/kg, po after 0 to 48 hrs by LC-MS/MS analysis; type: ADME, organism-based; design: dose 100 mg/kg, time 0 - last, route oral; details: in vivo
[14] = Apparent oral clearance in Sprague-Dawley rat at 100 mg/kg, po after 0 to 48 hrs by LC-MS/MS analysis; type: ADME, organism-based; details: in vivo
[15] = tested on: MCF7; assay: Induction of p53 protein expression in human MCF7 cells at antiplasmodial IC50 after 36 hrs by luciferase reporter assay relative to control relative to doxorubicin; type: functional
[16] = tested on: Rattus norvegicus; assay: Apparent oral volume of distribution in Sprague-Dawley rat at 100 mg/kg, po after 0 to 48 hrs by LC-MS/MS analysis; type: ADME, organism-based; details: in vivo
[17] = Cmax in Sprague-Dawley rat at 100 mg/kg, po after 0 to 48 hrs by LC-MS/MS analysis; type: ADME, organism-based; design: dose 100 mg/kg, route oral; details: in vivo

Row | Compound | Ratio CC50/IC50 [1] | IC50 [2] [µM] | IC50 [3] [µM] | CC50 [4] [µM] | Ratio IC50 [5] | Ratio CC50/IC50 [6] | Activity [7] | inhibition in vivo at 100 mg/kg [8] [%] | Activity [9] | Activity [10] | Tmax [11] [h] | MRT last [12] [h] | AUClast [13] [ng·h/mL] | CL/F [14] [mL/min/kg] | fold change (FC) [10] | fold change (FC) [15] | Vd/F [16] [L/kg] | Cmax [17] [ng/mL]
1 | OC(CNc1ccc(I)cc1)(c1ccc(Cl)cc1)c1nnn(Cc2ccccc2)c1-c1ccc(Cl)cc1 (stereo not given) | >340.1 | 1.47 | 1.48 | > 500 | 0.99 | >337.83 | – | – | – | – | – | – | – | – | – | – | – | –
2 | OC(CNc1ccc(Br)cc1)(c1ccc(Cl)cc1)c1nnn(Cc2ccccc2)c1-c1ccc(Br)cc1 (stereo not given) | >233.64 | 2.04 | 0.87 | > 500 | 2.45 | >574.71 | Non-toxic | 27.2 | – | – | – | – | – | – | – | – | – | –
3 | OC(CNc1ccccc1Br)(c1ccc(Cl)cc1)c1nnn(Cc2ccccc2)c1-c1ccc(F)cc1 (stereo not given) | >59.1 | 8.46 | 9.09 | > 500 | 0.93 | >55 | – | – | – | – | – | – | – | – | – | – | – | –
4 | Cc1ccc(C(O)(CNc2ccc(C)c(C)c2)c2nnn(Cc3ccccc3)c2-c2ccc(Cl)cc2)cc1 (stereo not given) | >185.87 | 2.69 | 1.78 | > 500 | 1.51 | >280.89 | – | – | – | – | – | – | – | – | – | – | – | –
5 | OC(CNc1ccc(F)c(F)c1)(c1ccc(Cl)cc1)c1nnn(Cc2ccccc2)c1-c1ccc(Cl)cc1 (stereo not given) | >1000 | 0.5 | 2.15 | > 500 | 0.23 | >232.55 | Non-toxic | 89.9 | – | – | – | – | – | – | – | – | – | –
6 | CC(C)c1ccc(-c2c(C(O)(CNc3ccc(F)cc3)c3ccc(Cl)cc3)nnn2Cc2ccccc2)cc1 (stereo not given) | >299.4 | 1.67 | 1.58 | > 500 | 1.05 | >316.45 | – | – | – | – | – | – | – | – | – | – | – | –
7 | OC(CNc1ccc(Cl)cc1)(c1ccc(Cl)cc1)c1nnn(Cc2ccccc2)c1-c1ccc(F)cc1 (stereo not given) | >242.71 | 2.06 | 2.85 | > 500 | 0.72 | >175.43 | – | – | – | – | – | – | – | – | – | – | – | –
8 | OC(CNc1ccc(F)cc1)(c1ccc(Br)cc1)c1nnn(Cc2ccccc2)c1-c1ccccc1 (stereo not given) | >108.9 | 4.59 | 2.71 | > 500 | 1.69 | >184.5 | – | – | – | – | – | – | – | – | – | – | – | –
9 | Cc1ccc(NCC(O)(c2ccc(Cl)cc2)c2nnn(Cc3ccccc3)c2-c2ccc(Cl)cc2)cc1C (stereo not given) | 195.31 | 3.18 | 2.24 | > 500 | 1.41 | 183.15 | – | – | – | – | – | – | – | – | – | – | – | –
10 | OC(CNc1ccc2c(c1)OCO2)(c1ccc(Cl)cc1)c1nnn(Cc2ccccc2)c1-c1ccc(Cl)cc1 (stereo not given) | >195.3 | 2.56 | 2.73 | > 500 | 0.93 | >183.1 | – | – | – | – | – | – | – | – | – | – | – | –
11 | OC(CNc1ccc(Br)cc1)(c1ccc(Cl)cc1)c1nnn(Cc2ccccc2)c1-c1ccccc1 (stereo not given) | >267.37 | 1.87 | 1.95 | > 500 | 0.95 | >256.41 | – | – | – | – | – | – | – | – | – | – | – | –
12 | OC(CNc1ccc(Br)cc1)(c1ccc(Br)cc1)c1nnn(Cc2ccccc2)c1-c1ccccc1 (stereo not given) | >1000 | 0.5 | 1.65 | > 500 | 0.3 | >303.03 | Non-toxic | 16.8 | tde | Active | – | – | – | – | – | – | – | –
13 | OC(CNc1ccc(F)cc1)(c1ccc(Cl)cc1)c1nnn(Cc2ccccc2)c1-c1ccc(F)cc1 (stereo not given) | >151.97 | 3.29 | 3.87 | > 500 | 0.85 | >129.19 | – | – | – | – | – | – | – | – | – | – | – | –
14 | OC(CNc1cccc2ccccc12)(c1ccc(Cl)cc1)c1nnn(Cc2ccccc2)c1-c1ccc(Cl)cc1 (stereo not given) | 235.39 | 1.23 | 1.33 | 290 | 0.92 | 217.59 | – | – | tde | Active | – | – | – | – | – | – | – | –
15 | Cc1ccc(NCC(O)(c2ccc(Cl)cc2)c2nnn(Cc3ccccc3)c2-c2ccc(F)cc2)cc1C (stereo not given) | >178.57 | 2.8 | 2.67 | > 500 | 1.04 | >187.26 | – | – | – | – | – | – | – | – | – | – | – | –
16 | OC(CNc1ccc(Br)cc1)(c1ccc(Cl)cc1)c1nnn(Cc2ccccc2)c1-c1ccc(Cl)cc1 (stereo not given) | >354.6 | 1.41 | 1.59 | > 500 | 0.88 | >314.4 | – | – | – | – | – | – | – | – | – | – | – | –
17 | Cc1ccc(NCC(O)(c2ccc(Cl)cc2)c2nnn(Cc3ccccc3)c2-c2ccccc2)cc1C (stereo not given) | >185.18 | 2.7 | 2.58 | > 500 | 1.04 | >193.79 | – | – | – | – | – | – | – | – | – | – | – | –
18 | OC(CNc1ccc(F)cc1)(c1ccc(Cl)cc1)c1nnn(Cc2ccccc2)c1-c1ccccc1 (stereo not given) | >140.05 | 3.57 | 3.31 | > 500 | 1.07 | >151.05 | – | – | – | – | – | – | – | – | – | – | – | –
19 | OC(CNc1ccc(Br)cc1)(c1ccc(Cl)cc1)c1nnn(Cc2ccccc2)c1-c1ccc(F)cc1 (stereo not given) | >248.75 | 2.01 | 1.1 | > 500 | 1.82 | >454.54 | Non-toxic | 64.6 | – | Active | – | – | – | – | – | – | – | –
20 | OC(CNc1ccc(Br)cc1)(c1ccc(Cl)cc1)c1nnn(Cc2ccc(Br)cc2)c1-c1ccc(Cl)cc1 (stereo not given) | >297.61 | 1.68 | 2.42 | > 500 | 0.69 | >206.61 | – | – | – | – | – | – | – | – | – | – | – | –
21 | Cc1ccc(NCC(O)(c2ccc(Br)cc2)c2nnn(Cc3ccccc3)c2-c2ccccc2)cc1C (stereo not given) | >143.6 | 3.48 | 2.72 | > 500 | 1.27 | >183.8 | – | – | – | – | – | – | – | – | – | – | – | –
22 | OC(CNc1ccccc1Br)(c1ccc(Cl)cc1)c1nnn(Cc2ccccc2)c1-c1ccc(Br)cc1 (stereo not given) | >58.07 | 8.61 | 11.6 | > 500 | 0.74 | >43.21 | – | – | – | – | – | – | – | – | – | – | – | –
23 | COc1cc(NCC(O)(c2ccc(Cl)cc2)c2nnn(Cc3ccccc3)c2-c2ccc(Cl)cc2)ccc1Br (stereo not given) | >326.29 | 1.53 | 1.65 | > 500 | 0.92 | >303.3 | – | – | – | – | – | – | – | – | – | – | – | –
24 | CC(C)c1ccc(-c2c(C(O)(CNc3ccc(Br)cc3)c3ccc(Cl)cc3)nnn2Cc2ccccc2)cc1 (stereo not given) | 73.26 | 2.11 | 0.3 | 155 | >7.03 | 515.3 | Non-toxic | 86.8 | tde | – | 4 | 15 | 1590 | 741 | 20 | 10 | 1837.17 | 212
25 | CCN(CC)CCCC(C)Nc1ccnc2cc(Cl)ccc12 (stereo not given) [CHLOROQUINE PHOSPHATE] | – | – | – | > 500 | – | – | – | – | – | – | – | – | – | – | – | – | – | –
26 | OC(CNc1ccc(F)cc1)(c1ccc(Cl)cc1)c1nnn(Cc2ccccc2)c1-c1ccc(Br)cc1 (stereo not given) | >154.79 | 3.23 | 3.21 | > 500 | 1 | >155.76 | – | – | – | – | – | – | – | – | – | – | – | –
